Source: ChEMBL document CHEMBL5058649, “Data for DCP probe BAY 1816032” (2022)

How the values were obtained:
[1] = biological target: T1, Mitotic checkpoint serine/threonine-protein kinase BUB1 (Homo sapiens, UniProt O43683); test: BUB1 DiscoveRx kinase panel
[2] = biological target: Cyclin-dependent kinase-like 1 (Homo sapiens) (UniProt Q00532); test: CDKL1 DiscoveRx kinase panel; conditions: Compound concentration 1.0 uM
[3] = biological target: Ephrin type-A receptor 6 (Homo sapiens) (UniProt Q9UF33); test: EPHA6 DiscoveRx kinase panel; conditions: Compound concentration 1.0 uM
[4] = biological target: Inhibitor of nuclear factor kappa-B kinase subunit epsilon (Homo sapiens) (UniProt Q14164); test: IKK-epsilon DiscoveRx kinase panel; conditions: Compound concentration 1.0 uM
[5] = biological target: MAP kinase-activated protein kinase 5 (Homo sapiens) (UniProt Q8IW41); test: MAPKAPK5 DiscoveRx kinase panel; conditions: Compound concentration 1.0 uM
[6] = biological target: Transient receptor potential cation channel subfamily M member 6 (Homo sapiens) (UniProt Q9BX84); test: TRPM6 DiscoveRx kinase panel; conditions: Compound concentration 1.0 uM
[7] = biological target: Cyclin-dependent kinase 3 (Homo sapiens) (UniProt Q00526); test: CDK3 DiscoveRx kinase panel; conditions: Compound concentration 1.0 uM
[8] = biological target: RAF proto-oncogene serine/threonine-protein kinase (Homo sapiens) (UniProt P04049); test: RAF1 DiscoveRx kinase panel; conditions: Compound concentration 1.0 uM
[9] = biological target: Cyclin-dependent kinase 15 (Homo sapiens) (UniProt Q96Q40); test: PFTAIRE2 DiscoveRx kinase panel; conditions: Compound concentration 1.0 uM
[10] = biological target: Adenosine receptor A1 (Homo sapiens) (UniProt P30542); conditions: Compound concentration 10.0 uM
[11] = biological target: LIM domain kinase 1 (Homo sapiens) (UniProt P53667); test: LIMK1 DiscoveRx kinase panel; conditions: Compound concentration 1.0 uM
[12] = biological target: Mu-type opioid receptor (Homo sapiens) (UniProt P35372); conditions: Compound concentration 10.0 uM
[13] = biological target: Dual specificity mitogen-activated protein kinase kinase 4 (Homo sapiens) (UniProt P45985); test: MEK4 DiscoveRx kinase panel; conditions: Compound concentration 1.0 uM
[14] = biological target: Dual specificity tyrosine-phosphorylation-regulated kinase 1A (Homo sapiens) (UniProt Q13627); test: DYRK1A DiscoveRx kinase panel; conditions: Compound concentration 1.0 uM
[15] = biological target: Cyclin-dependent kinase 8 (Homo sapiens) (UniProt P49336); test: CDK8 DiscoveRx kinase panel; conditions: Compound concentration 1.0 uM
[16] = biological target: MAP kinase-interacting serine/threonine-protein kinase 1 (Homo sapiens) (UniProt Q9BUB5); test: MKNK1 DiscoveRx kinase panel; conditions: Compound concentration 1.0 uM
[17] = biological target: Inhibitor of nuclear factor kappa-B kinase subunit beta (Homo sapiens) (UniProt O14920); test: IKK-beta DiscoveRx kinase panel; conditions: Compound concentration 1.0 uM
[18] = biological target: Glutamate receptor 2 (Homo sapiens) (UniProt P42262); conditions: Rattus norvegicus; Compound concentration 10.0 uM
[19] = biological target: Mitogen-activated protein kinase kinase kinase 14 (Homo sapiens) (UniProt Q99558); test: NIK DiscoveRx kinase panel; conditions: Compound concentration 1.0 uM
[20] = biological target: Serine/threonine-protein kinase VRK2 (Homo sapiens) (UniProt Q86Y07); test: VRK2 DiscoveRx kinase panel; conditions: Compound concentration 1.0 uM
[21] = biological target: D(2) dopamine receptor (Homo sapiens) (UniProt P14416); conditions: Compound concentration 10.0 uM
[22] = biological target: cGMP-dependent protein kinase 2 (Homo sapiens) (UniProt Q13237); test: PRKG2 DiscoveRx kinase panel; conditions: Compound concentration 1.0 uM
[23] = biological target: Cysteinyl leukotriene receptor 1 (Homo sapiens) (UniProt Q9Y271); test: Inhibition of Leukotriene, Cysteinyl CysLT1 at 10 µM in the Eurofins-Panlabs radioligand binding assay (Eurofins_assay_250460); parameters: ligand concentration 0.3 nM, non-specific ligand with concentration 0.3 µM Leukotriene D4, incubation time 30 min, incubation temperature 25 °C; conditions: Compound concentration 10.0 uM
[24] = biological target: Serine/threonine-protein kinase D1 (Homo sapiens) (UniProt Q15139); test: PRKD1 DiscoveRx kinase panel; conditions: Compound concentration 1.0 uM
[25] = biological target: Serine/threonine-protein kinase MRCK beta (Homo sapiens) (UniProt Q9Y5S2); test: MRCKB DiscoveRx kinase panel; conditions: Compound concentration 1.0 uM
[26] = biological target: Cyclin-G-associated kinase (Homo sapiens) (UniProt O14976); test: GAK DiscoveRx kinase panel; conditions: Compound concentration 1.0 uM
[27] = biological target: Tyrosine-protein kinase JAK1 (Homo sapiens) (UniProt P23458); test: JAK1(JH2domain-pseudokinase) DiscoveRx kinase panel; conditions: Compound concentration 1.0 uM
[28] = biological target: D(1A) dopamine receptor (Homo sapiens) (UniProt P21728); conditions: Compound concentration 10.0 uM
[29] = biological target: Mitogen-activated protein kinase kinase kinase 9 (Homo sapiens) (UniProt P80192); test: MLK1 DiscoveRx kinase panel; conditions: Compound concentration 1.0 uM
[30] = biological target: Bone morphogenetic protein receptor type-1A (Homo sapiens) (UniProt P36894); test: BMPR1A DiscoveRx kinase panel; conditions: Compound concentration 1.0 uM
[31] = biological target: Serine/threonine-protein kinase Nek3 (Homo sapiens) (UniProt P51956); test: NEK3 DiscoveRx kinase panel; conditions: Compound concentration 1.0 uM
[32] = biological target: Mitogen-activated protein kinase kinase kinase kinase 2 (Homo sapiens) (UniProt Q12851); test: MAP4K2 DiscoveRx kinase panel; conditions: Compound concentration 1.0 uM
[33] = biological target: Myosin-IIIa (Homo sapiens) (UniProt Q8NEV4); test: MYO3A DiscoveRx kinase panel; conditions: Compound concentration 1.0 uM
[34] = biological target: Serine/threonine-protein kinase DCLK1 (Homo sapiens) (UniProt O15075); test: DCAMKL1 DiscoveRx kinase panel; conditions: Compound concentration 1.0 uM
[35] = biological target: Ribosomal protein S6 kinase alpha-5 (Homo sapiens) (UniProt O75582); test: RPS6KA5(Kin.Dom.1-N-terminal) DiscoveRx kinase panel; conditions: Compound concentration 1.0 uM
[36] = biological target: Phosphatidylinositol 4,5-bisphosphate 3-kinase catalytic subunit delta isoform (Homo sapiens) (UniProt O00329); test: PIK3CD DiscoveRx kinase panel; conditions: Compound concentration 1.0 uM
[37] = biological target: Serine/threonine-protein kinase Sgk1 (Homo sapiens) (UniProt O00141); test: SGK DiscoveRx kinase panel; conditions: Compound concentration 1.0 uM
[38] = biological target: RAC-gamma serine/threonine-protein kinase (Homo sapiens) (UniProt Q9Y243); test: AKT3 DiscoveRx kinase panel; conditions: Compound concentration 1.0 uM
[39] = biological target: T1, Mitotic checkpoint serine/threonine-protein kinase BUB1; test: BUB1 biochemical assay (high ATP)
Target sequence in this assay (O43683 whole entry): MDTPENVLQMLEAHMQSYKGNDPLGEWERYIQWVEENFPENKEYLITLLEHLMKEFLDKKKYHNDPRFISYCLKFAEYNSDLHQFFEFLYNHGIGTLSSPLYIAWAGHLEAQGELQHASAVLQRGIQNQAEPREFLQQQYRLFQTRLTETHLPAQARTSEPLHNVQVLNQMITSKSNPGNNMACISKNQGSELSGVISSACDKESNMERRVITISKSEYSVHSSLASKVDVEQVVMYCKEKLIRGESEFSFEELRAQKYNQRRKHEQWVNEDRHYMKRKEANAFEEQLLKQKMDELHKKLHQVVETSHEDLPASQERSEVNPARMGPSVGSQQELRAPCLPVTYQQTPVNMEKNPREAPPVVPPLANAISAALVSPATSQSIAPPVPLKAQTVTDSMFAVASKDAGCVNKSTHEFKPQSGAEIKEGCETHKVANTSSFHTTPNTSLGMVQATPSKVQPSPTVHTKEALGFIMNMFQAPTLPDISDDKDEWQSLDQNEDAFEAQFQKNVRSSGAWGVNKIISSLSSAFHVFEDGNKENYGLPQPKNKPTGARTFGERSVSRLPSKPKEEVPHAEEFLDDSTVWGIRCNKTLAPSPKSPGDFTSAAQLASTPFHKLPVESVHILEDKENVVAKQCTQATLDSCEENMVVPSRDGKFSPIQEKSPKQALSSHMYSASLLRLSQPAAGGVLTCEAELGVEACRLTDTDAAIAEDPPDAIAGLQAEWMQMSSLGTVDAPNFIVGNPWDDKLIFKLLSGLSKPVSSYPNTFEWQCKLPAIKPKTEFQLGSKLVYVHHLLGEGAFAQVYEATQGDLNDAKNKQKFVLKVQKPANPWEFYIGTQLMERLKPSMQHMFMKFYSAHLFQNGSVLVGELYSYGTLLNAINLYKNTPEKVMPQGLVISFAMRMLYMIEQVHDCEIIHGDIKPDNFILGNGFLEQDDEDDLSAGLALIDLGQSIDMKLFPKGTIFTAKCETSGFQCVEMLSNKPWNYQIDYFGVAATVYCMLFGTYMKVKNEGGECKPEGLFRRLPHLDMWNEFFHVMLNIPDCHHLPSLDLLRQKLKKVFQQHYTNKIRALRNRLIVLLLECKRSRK

[40] = species on record: Rattus norvegicus; test: Inhibition of Glutamate, NMDA, Phencyclidine at 10 µM in the Eurofins-Panlabs radioligand binding assay (Eurofins_assay_233000); format: protein-complex assay; conditions: Compound concentration 10.0 uM
[41] = biological target: Type-1 angiotensin II receptor (Homo sapiens) (UniProt P30556); test: Angiotensin AT1 Eurofins-Panlabs radioligand binding assay; conditions: Compound concentration 10.0 uM
[42] = biological target: Homeodomain-interacting protein kinase 3 (Homo sapiens) (UniProt Q9H422); test: HIPK3 DiscoveRx kinase panel; conditions: Compound concentration 1.0 uM
[43] = biological target: Serine/threonine-protein kinase PLK1 (Homo sapiens) (UniProt P53350); test: PLK1 DiscoveRx kinase panel; conditions: Compound concentration 1.0 uM
[44] = biological target: Fibroblast growth factor receptor 2 (Homo sapiens) (UniProt P21802); test: FGFR2 DiscoveRx kinase panel; conditions: Compound concentration 1.0 uM
[45] = biological target: Serine/threonine-protein kinase Nek6 (Homo sapiens) (UniProt Q9HC98); test: NEK6 DiscoveRx kinase panel; conditions: Compound concentration 1.0 uM
[46] = biological target: Mitogen-activated protein kinase kinase kinase 7 (Homo sapiens) (UniProt O43318); test: TAK1 DiscoveRx kinase panel; conditions: Compound concentration 1.0 uM
[47] = biological target: Peripheral plasma membrane protein CASK (Homo sapiens) (UniProt O14936); test: CASK DiscoveRx kinase panel; conditions: Compound concentration 1.0 uM
[48] = biological target: Mitogen-activated protein kinase kinase kinase kinase 3 (Homo sapiens) (UniProt Q8IVH8); test: MAP4K3 DiscoveRx kinase panel; conditions: Compound concentration 1.0 uM
[49] = biological target: Calcium/calmodulin-dependent protein kinase type 1B (Homo sapiens) (UniProt Q6P2M8); test: CAMK1B DiscoveRx kinase panel; conditions: Compound concentration 1.0 uM

Fibroblast growth factor receptor 2 (Homo sapiens), sequence (P21802 22-821 limits assumed): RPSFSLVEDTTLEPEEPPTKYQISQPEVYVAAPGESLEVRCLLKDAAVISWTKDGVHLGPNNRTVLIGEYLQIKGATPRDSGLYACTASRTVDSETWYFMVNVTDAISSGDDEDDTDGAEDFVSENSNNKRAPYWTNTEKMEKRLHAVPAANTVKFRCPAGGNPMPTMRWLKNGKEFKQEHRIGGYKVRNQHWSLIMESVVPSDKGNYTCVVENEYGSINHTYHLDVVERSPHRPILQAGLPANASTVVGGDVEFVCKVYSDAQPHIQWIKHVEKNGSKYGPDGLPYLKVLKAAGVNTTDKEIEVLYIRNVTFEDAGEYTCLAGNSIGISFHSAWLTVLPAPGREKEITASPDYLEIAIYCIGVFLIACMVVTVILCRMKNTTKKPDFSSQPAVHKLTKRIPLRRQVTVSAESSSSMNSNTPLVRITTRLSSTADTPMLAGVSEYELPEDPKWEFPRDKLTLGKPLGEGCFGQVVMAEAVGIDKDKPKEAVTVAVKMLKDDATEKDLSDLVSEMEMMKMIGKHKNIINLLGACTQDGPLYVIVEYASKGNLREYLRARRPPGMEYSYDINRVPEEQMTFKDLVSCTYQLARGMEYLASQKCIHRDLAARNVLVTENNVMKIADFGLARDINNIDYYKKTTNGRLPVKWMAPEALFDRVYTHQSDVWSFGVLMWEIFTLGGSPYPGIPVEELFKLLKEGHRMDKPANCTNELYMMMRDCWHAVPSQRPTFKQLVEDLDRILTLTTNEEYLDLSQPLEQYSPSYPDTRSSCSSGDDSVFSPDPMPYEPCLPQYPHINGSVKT
Inhibitor of nuclear factor kappa-B kinase subunit beta (Homo sapiens), sequence (O14920 whole entry): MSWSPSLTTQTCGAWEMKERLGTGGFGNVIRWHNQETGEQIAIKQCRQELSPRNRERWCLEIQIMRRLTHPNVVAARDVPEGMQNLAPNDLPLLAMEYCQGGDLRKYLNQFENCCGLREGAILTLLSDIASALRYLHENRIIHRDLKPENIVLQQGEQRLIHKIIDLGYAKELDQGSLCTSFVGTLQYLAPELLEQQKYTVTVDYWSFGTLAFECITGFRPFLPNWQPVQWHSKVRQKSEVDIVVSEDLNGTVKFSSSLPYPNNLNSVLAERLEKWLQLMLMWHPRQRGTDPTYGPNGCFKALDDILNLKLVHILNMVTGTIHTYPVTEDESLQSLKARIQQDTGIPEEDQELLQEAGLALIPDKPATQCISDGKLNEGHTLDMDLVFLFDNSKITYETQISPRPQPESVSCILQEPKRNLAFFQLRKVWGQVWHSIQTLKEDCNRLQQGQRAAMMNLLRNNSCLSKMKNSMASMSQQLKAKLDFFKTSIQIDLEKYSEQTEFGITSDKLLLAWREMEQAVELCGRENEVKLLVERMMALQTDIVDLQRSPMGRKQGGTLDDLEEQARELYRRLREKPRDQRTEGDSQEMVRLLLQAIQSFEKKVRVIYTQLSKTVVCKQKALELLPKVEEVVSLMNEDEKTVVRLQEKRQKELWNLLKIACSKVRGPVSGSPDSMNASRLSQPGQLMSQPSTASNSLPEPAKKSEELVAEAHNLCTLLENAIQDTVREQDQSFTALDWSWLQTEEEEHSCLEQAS
Mitogen-activated protein kinase kinase kinase kinase 2 (Homo sapiens), sequence (Q12851 whole entry): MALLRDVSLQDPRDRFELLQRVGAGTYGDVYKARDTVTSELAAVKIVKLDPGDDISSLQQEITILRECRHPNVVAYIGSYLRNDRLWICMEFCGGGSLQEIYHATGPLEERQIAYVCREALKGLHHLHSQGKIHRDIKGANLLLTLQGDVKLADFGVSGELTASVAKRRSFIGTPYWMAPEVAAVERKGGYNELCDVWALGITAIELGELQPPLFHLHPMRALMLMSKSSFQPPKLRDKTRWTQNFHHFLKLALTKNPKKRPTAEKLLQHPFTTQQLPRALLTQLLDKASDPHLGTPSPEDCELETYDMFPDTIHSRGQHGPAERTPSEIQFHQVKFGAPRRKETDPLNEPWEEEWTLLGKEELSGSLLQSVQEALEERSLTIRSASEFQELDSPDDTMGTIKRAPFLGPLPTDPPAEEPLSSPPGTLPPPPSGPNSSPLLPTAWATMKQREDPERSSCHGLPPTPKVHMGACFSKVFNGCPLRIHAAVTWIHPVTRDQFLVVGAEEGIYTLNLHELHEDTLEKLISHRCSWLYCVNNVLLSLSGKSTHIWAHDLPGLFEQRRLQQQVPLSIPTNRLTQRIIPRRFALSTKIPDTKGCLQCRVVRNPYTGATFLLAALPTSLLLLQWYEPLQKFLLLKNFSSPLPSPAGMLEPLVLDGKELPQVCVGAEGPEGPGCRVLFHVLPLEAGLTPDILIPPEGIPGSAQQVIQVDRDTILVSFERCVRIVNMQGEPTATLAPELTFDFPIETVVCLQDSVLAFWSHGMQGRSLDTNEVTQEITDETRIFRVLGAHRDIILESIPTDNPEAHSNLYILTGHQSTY
Inhibitor of nuclear factor kappa-B kinase subunit epsilon (Homo sapiens), sequence (Q14164 whole entry): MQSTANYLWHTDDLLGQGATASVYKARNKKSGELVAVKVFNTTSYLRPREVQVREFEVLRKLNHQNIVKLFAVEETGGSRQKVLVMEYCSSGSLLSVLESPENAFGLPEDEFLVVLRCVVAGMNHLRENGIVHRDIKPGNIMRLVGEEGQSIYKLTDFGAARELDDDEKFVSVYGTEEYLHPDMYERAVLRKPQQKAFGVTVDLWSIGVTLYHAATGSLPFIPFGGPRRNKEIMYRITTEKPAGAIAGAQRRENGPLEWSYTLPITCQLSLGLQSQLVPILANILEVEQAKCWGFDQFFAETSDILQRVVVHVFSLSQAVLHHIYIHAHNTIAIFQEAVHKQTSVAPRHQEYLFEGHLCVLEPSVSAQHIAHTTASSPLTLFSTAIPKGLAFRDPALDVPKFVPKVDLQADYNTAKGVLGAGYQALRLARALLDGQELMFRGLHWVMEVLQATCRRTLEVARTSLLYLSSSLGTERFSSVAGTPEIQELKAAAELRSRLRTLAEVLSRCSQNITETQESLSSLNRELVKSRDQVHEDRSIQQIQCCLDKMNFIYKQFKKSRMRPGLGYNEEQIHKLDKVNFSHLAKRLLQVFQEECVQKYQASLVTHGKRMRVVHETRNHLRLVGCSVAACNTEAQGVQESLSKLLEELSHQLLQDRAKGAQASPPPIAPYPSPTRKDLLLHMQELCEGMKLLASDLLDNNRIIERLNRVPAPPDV
Dual specificity mitogen-activated protein kinase kinase 4 (Homo sapiens), sequence (P45985 whole entry): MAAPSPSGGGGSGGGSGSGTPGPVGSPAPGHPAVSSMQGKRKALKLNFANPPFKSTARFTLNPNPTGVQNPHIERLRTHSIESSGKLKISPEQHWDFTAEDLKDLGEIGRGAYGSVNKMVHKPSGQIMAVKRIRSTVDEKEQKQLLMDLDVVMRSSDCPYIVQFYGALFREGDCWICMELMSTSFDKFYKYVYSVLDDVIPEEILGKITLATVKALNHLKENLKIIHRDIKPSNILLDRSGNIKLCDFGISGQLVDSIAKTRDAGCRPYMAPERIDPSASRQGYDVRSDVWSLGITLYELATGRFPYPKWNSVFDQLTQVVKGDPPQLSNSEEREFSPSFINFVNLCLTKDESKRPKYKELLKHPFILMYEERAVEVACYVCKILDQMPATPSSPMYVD
Mu-type opioid receptor (Homo sapiens), sequence (P35372 whole entry): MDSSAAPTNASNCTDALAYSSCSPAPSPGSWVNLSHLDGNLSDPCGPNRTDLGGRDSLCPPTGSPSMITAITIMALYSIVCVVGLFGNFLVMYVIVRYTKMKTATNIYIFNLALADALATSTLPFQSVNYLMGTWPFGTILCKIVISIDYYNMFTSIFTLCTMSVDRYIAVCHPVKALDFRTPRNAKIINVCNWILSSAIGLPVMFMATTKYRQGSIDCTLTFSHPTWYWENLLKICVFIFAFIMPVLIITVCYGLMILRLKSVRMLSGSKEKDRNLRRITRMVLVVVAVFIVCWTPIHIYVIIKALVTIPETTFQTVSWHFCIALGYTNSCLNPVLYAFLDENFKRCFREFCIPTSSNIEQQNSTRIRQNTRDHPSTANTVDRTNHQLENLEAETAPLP

## COc1cnccc1Nc1nc(-c2nn(Cc3c(F)cc(OCCO)cc3F)c3ccccc23)ncc1OC
[1]
  Kd: 3.3 nM
[1]; Compound concentration 1.0 uM
  residual activity: 0.05%
[2]
  residual activity: 81%
[3]
  residual activity: 89%
[4]
  residual activity: 92%
[5]
  residual activity: 100%
[6]
  residual activity: 82%
[7]
  residual activity: 99%
[8]
  residual activity: 71%
[9]
  residual activity: 96%
[10]
  inhibition: 9%
[11]
  residual activity: 86%
[12]
  inhibition: -4.25%
[13]
  residual activity: 90%
[14]
  residual activity: 96%
[15]
  residual activity: 69%
[16]
  residual activity: 100%
[17]
  residual activity: 100%
[18]
  inhibition: 7%
[19]
  residual activity: 100%
[20]
  residual activity: 94%
[21]
  inhibition: 17%
[22]
  residual activity: 95%
[23]
  inhibition: 32%
[24]
  residual activity: 100%
[25]
  residual activity: 98%
[26]
  residual activity: 77%
[27]
  residual activity: 100%
[28]
  inhibition: 5%
[29]
  residual activity: 92%
[30]
  residual activity: 74%
[31]
  residual activity: 100%
[32]
  residual activity: 100%
[33]
  residual activity: 100%
[34]
  residual activity: 100%
[35]
  residual activity: 100%
[36]
  residual activity: 100%
[37]
  residual activity: 93%
[38]
  residual activity: 100%
[39]
  IC50: 1900 nM (not active)
[40]
  inhibition: 2%
[41]
  inhibition: -2%
[42]
  residual activity: 100%
[43]
  residual activity: 98%
[44]
  residual activity: 100%
[45]
  residual activity: 70%
[46]
  residual activity: 100%
[47]
  residual activity: 78%
[48]
  residual activity: 100%
[49]
  residual activity: 95%
